From patent US20080249140A1, “Quaternary 3 -Amido, N-Methylpyridinium Salts as Anti-Inflammatory Agents” (priority 2005, published 2008)

Assays:
rats = conditions: comparable to nicotinamide, lower than diethylamine; cited from earlier work
[1] = system: reddening of the skin upon UV-irradiation; assay: UV-erythema test (anti-inflammation) with a trial person; type: in vivo; conditions: for Readings of reddening intensities: 15±1 mg gel applied to irradiated skin, lower arm, UV C 150 seconds
Method: The NMN diclofenac salt prepared according to Example 1 was tested in experiments with a trial person in an […] according to Hiramatsu Y et al., Arzneimittel-forschung 1990, vol. 40 (11), 1117, and Wilhelm G, Schweiz. Med. Wochenschrift 1949, vol. 79, 577. The criterion of efficacy was the inhibition of the reddening of the skin upon UV-irradiation during the time of observation.
UV-Erythema Test (Anti-Inflammation):
• Lamp used: UV C lamp (Sylvania, Hg low pressure), 9 W • Irradiated area: circular, […] • Distance from lamp: 10 cm • Time of irradiation: 150 seconds • Site: lower arm, shaven, proximal side • Amount of gel applied to irradiated surface: 15±1 mg 3.5 to 5 minutes after end of irradiation
Readings of reddening intensities at given time intervals (arbitrary units): […]

For `C[n+]1cccc(C(N)=O)c1` [NMN, N(1)-methylnicotinamide], the Toxicity (rats) is listed as “low toxicity”.
In the case of `C[n+]1cccc(C(N)=O)c1.O=C([O-])Cc1ccccc1Nc1c(Cl)cccc1Cl` [NMN-Diclofenac, NMN-Salt of Diclofenac], the “Readings of reddening intensities” value ([1]; 40 minutes after start of irradiation) is reported as 1 arbitrary units, the “Readings of reddening intensities” value ([1]; 60 minutes after start of irradiation) is reported as 0.5 arbitrary units and the “Readings of reddening intensities” value ([1]; 90 minutes after start of irradiation) is reported as 0 arbitrary units. For the same compound, the “Readings of reddening intensities” value ([1]; 120 minutes after start of irradiation) was 0.5 arbitrary units, the “Readings of reddening intensities” value ([1]; 180 minutes after start of irradiation) was 0.5 arbitrary units and the “Activity in UV-erythema test compared with Voltaren-Emulgel” value ([1]; comparison with Voltaren-Emulgel (diethylammonium salt of diclofenac)) was “superior activity”.
